Where two headings read alike, the source gives them in different places.
Key:
[1] = Dynamic solubility in water and FaSSIF at 37° C.; type: physicochemical; details: for solubility at 1 h / solubility at 2 h / solubility at 4 h / solubility at 24 h: thermodynamic from solid, read-out: S: Solubility
[2] = Solid-state stability, 14 days, HPLC; type: physicochemical
Procedure: Compound A salts and Compound A were tested for their solid-state stability under the conditions of 25° C./60% RH and 40° C./75% RH.

[3] = Hygroscopicity by dynamic moisture adsorption (DVS); type: physicochemical; details: for Hygroscopicity: 25° C./80% RH, succinate
Procedure: Dynamic moisture adsorption (DVS) was used to evaluate the hygroscopicity of compound A and salt forms under the condition of 25° C. and 80% RH.

U-87MG = assay: Thymidine incorporation (3H-TdR) anti-proliferative assay, U-87MG; type: cell-based; details: Homo sapiens, Brain tumor
Procedure: (§1) The thymidine incorporation (3H-TdR) assay was used to assess the anti-proliferative effect of the Compound A succinate on tumor cell lines. The cells were treated with a series of concentrations of Compound A succinate for 24 hours; 3H-TdR was added, and the cells were continued in the incubator for further 48 hours. Scintillation fluid was added, read on a liquid scintillation counter, and the inhibiting cell growth by 50% (IC50) was calculated as shown in Table 5.

COLO-205 = assay: Thymidine incorporation (3H-TdR) anti-proliferative assay, COLO-205; type: cell-based; details: Homo sapiens; COLO-205, Colon cancer
Procedure: as §1

SK-OV-3 = assay: Thymidine incorporation (3H-TdR) anti-proliferative assay, SK-OV-3; type: cell-based; details: Homo sapiens; SK-OV-3, Ovarian cancer
Procedure: as §1

ZR-75-1 = assay: Thymidine incorporation (3H-TdR) anti-proliferative assay, ZR-75-1; type: cell-based; details: Homo sapiens; ZR-75-1, Breast cancer
Procedure: as §1

MDA-MB-435S = assay: Thymidine incorporation (3H-TdR) anti-proliferative assay, MDA-MB-435S; type: cell-based; details: Homo sapiens, Breast cancer
Procedure: as §1

PANC-1 = assay: Thymidine incorporation (3H-TdR) anti-proliferative assay, PANC-1; type: cell-based; details: Homo sapiens; PANC-1, Pancreatic cancer
Procedure: as §1

Raji = assay: Thymidine incorporation (3H-TdR) anti-proliferative assay, Raji; type: cell-based; details: Homo sapiens, Lymphoma
Procedure: as §1

MOLM-13 = assay: Thymidine incorporation (3H-TdR) anti-proliferative assay, MOLM-13; type: cell-based; details: Homo sapiens; MOLM-13, Leukemia
Procedure: as §1

MV-4-11 = assay: Thymidine incorporation (3H-TdR) anti-proliferative assay, MV-4-11; type: cell-based; details: Homo sapiens, MV4-11; MV-4-11, Leukemia
Procedure: as §1

PC-3 = assay: Thymidine incorporation (3H-TdR) anti-proliferative assay, PC-3; type: cell-based; details: Homo sapiens; PC-3, Prostate cancer
Procedure: as §1

[4] = test system: A2780 ovarian cancer cells; assay: Subcutaneous A2780 ovarian cancer xenograft; type: in vivo, female BALB/c nude mice; details: for Tumor volume (±S): 14 days; for Mean tumor growth inhibition (T/C): day 14
Procedure: Compound A succinate was also assessed for in vivo anti-tumor activity in subcutaneous xenografts. Briefly, female BALB/c nude mice were inoculated with A2780 ovarian cancer cells; when the mean tumour volume reached 150-200 mm^3, animals were randomized to groups. The animals (n=8 per group) were treated orally with vehicle (ultra-pure water), Compound A succinate (62.5, 125 or 250 mg/kg), or Palbociclib (75 mg/kg) once a day for 14 consecutive days. Mice were observed daily for signs of toxicity and weight loss, and tumour volume measured every other day. […] Palbociclib was efficacious at 75 mg/kg, resulting in T/C of 42.8% (Table 6).

[5] = test system: COLO 205 colorectal tumor xenograft; assay: COLO 205 colorectal tumor xenograft; type: in vivo, mice; details: for Tumor volume (±S): 21 days; for Inhibition of tumor growth (T/C): day 21, succinate
Procedure: A separate study of Compound A succinate was conducted in COLO 205 colorectal tumor xenograft. The tumor-bearing mice (n=8) were treated orally with vehicle (ultra-pure water), or Compound A succinate (50 or 100 mg/kg) once daily for 21 days. As a positive control chemotherapy 5-FU (15 mg/kg) was given intraperitoneally. […] 5-FU was also effective with a T/C=47.2% (Table 7).

[6] = Pharmacokinetic study of Compound A succinate in cynomolgus monkeys; type: in vivo; details: for AUC(0-inf) / AUC(0-t) / Cmax / clearance / half-life / Vd: cynomolgus monkey, plasma; for Vd: read-out: Vz; for F: succinate
Procedure: In a separate study, four cynomolgus monkeys were divided into two groups (n=2 per group), and given Compound A succinate at 2 mg/kg by i.v. and 24 mg/kg by i.g., respectively. The plasma samples were collected, analyzed and PK parameters were calculated as above.

[7] = iv, i.v. 2 mg/kg, female cynomolgus monkeys
[8] = iv, i.v. 2 mg/kg, male cynomolgus monkeys
[9] = po, i.g. 24 mg/kg, female cynomolgus monkeys
[10] = po, i.g. 24 mg/kg, male cynomolgus monkeys

CCN1CCN(Cc2ccc(Nc3ncc(F)c(-c4sc(NC5CCCC5)nc4C)n3)nc2)CC1.O=C(O)CCC(=O)O [Compound A succinate, N-Cyclopentyl-5-(2-((5-((4-ethylpiperazin-1-yl)methyl)pyridin-2-yl)amino)-5-fluoropyrimidin-4-yl)-4-methylthiazol-2-amine succinate]
solubility compared to Compound A free base ([1]; both FaSSIF and water): significantly increased
solubility at 1 h ([1]; FaSSIF): 8200 µg/mL
solubility at 2 h ([1]; FaSSIF): 8100 µg/mL
solubility at 4 h ([1]; FaSSIF): 8100 µg/mL
solubility at 24 h ([1]; FaSSIF): 1100 µg/mL
solubility at 1 h ([1]; water, H2O): 2000 µg/mL
solubility at 2 h ([1]; water, H2O): 2000 µg/mL
solubility at 4 h ([1]; water, H2O): 2100 µg/mL
solubility at 24 h ([1]; water, H2O): 2300 µg/mL
Purity ([2]; 25° C./60% RH): 97.9 area %
Relative purity ([2]; 25° C./60% RH): 100.0 % of initial
Purity ([2]; 40° C./75% RH): 97.9 area %
Relative purity ([2]; 40° C./75% RH): 100.0 % of initial
Moisture absorbed at 25° C./80% RH [3]: 1.1%
Hygroscopicity ([3]; listed as Succinate): Slightly hygroscopic
Hygroscopicity [3]: minimal hygroscopicity
IC50 (U-87MG): 42.6 nM
IC50 (COLO-205): 839 nM
IC50 (SK-OV-3): 812 nM
IC50 (ZR-75-1): 35.7 nM
IC50 (MDA-MB-435S): 37.3 nM
IC50 (PANC-1): 812 nM
IC50 (Raji): 608 nM
IC50 (MOLM-13): 260 nM
IC50 (MV-4-11): 88.8 nM
IC50 (PC-3): 168 nM
Tumor volume (±S) ([4]; 62.5 mg/kg orally once a day): 1789.5 ± 131.5 mm^3
Mean tumor growth inhibition (T/C) ([4]; 62.5 mg/kg orally once a day): 44.8%
Tumor volume (±S) ([4]; 125 mg/kg orally once a day): 1009.6 ± 87.0 mm^3
Mean tumor growth inhibition (T/C) ([4]; 125 mg/kg orally once a day): 70.8%
Tumor volume (±S) ([4]; 250 mg/kg orally once a day): 546.4 ± 71.1 mm^3
Mean tumor growth inhibition (T/C) ([4]; 250 mg/kg orally once a day): 86.2%
Tumor volume (±S) ([5]; 50 mg/kg orally once daily): 941.10 ± 80.90 mm^3
Inhibition of tumor growth (T/C) ([5]; 50 mg/kg orally once daily, listed as compound A Succinate): 36.26%
Inhibition of tumor growth (T/C) ([5]; 50 mg/kg orally once daily): 36.3%
Tumor volume (±S) ([5]; 100 mg/kg orally once daily): 443.72 ± 40.49 mm^3
Inhibition of tumor growth (T/C) ([5]; 100 mg/kg orally once daily, listed as compound A Succinate): 74.69%
Inhibition of tumor growth (T/C) ([5]; 100 mg/kg orally once daily): 74.7%
AUC(0-inf) [6, 7]: 1190 ng·h/mL
AUC(0-t) [6, 7]: 1170 ng·h/mL
Cmax [6, 7]: 371 ng/mL
clearance [6, 7]: 31 mL/min/kg
half-life [6, 7]: 4.7 h
Vd [6, 7]: 13.2 L/kg
AUC(0-inf) [6, 8]: 872 ng·h/mL
AUC(0-t) [6, 8]: 843 ng·h/mL
Cmax [6, 8]: 240 ng/mL
clearance [6, 8]: 39.1 mL/min/kg
half-life [6, 8]: 5.3 h
Vd [6, 8]: 17.7 L/kg
AUC(0-inf) [6, 9]: 7740 ng·h/mL
AUC(0-t) [6, 9]: 7700 ng·h/mL
Cmax [6, 9]: 532 ng/mL
half-life [6, 9]: 6 h
AUC(0-inf) [6, 10]: 7420 ng·h/mL
AUC(0-t) [6, 10]: 7370 ng·h/mL
Cmax [6, 10]: 593 ng/mL
half-life [6, 10]: 6 h
F ([6]; i.g. 24 mg/kg, female cynomolgus monkeys): 54.9%
F ([6]; i.g. 24 mg/kg, male cynomolgus monkeys): 72.8%

Reference: US20230399325A1, “SUCCINATE AND CRYSTAL FORM THEREOF AS THERAPEUTICS” (AUCENTRA THERAPEUTICS PTY LTD, priority 2020, published 2023)
